Measured values as given in US5650441A, “Method of assaying CD4 glycoproteins by using certain azo dyes” (The United States of America, as represented by the …, priority 1994, dated 1997).

Columns and labels:
CD4 on PBL = biological target: T1, CD4 on PBL (Homo sapiens, UniProt P01730); assay: Inhibition of binding of αCD4-FITC (anti-Leu3a) to PBL, flow cytometry; details: for remaining activity at 7 µM: compound 7 μM
T1 construct: Human peripheral blood lymphocytes (PBL) were prepared by density gradient centrifugation; endogenous in cells; host or cells: human peripheral blood lymphocytes (PBL)
Protocol: (§1) Human peripheral blood lymphocytes (PBL) were prepared by density gradient centrifugation as previously described (Weaver et al., 1990). The effect of drugs on the binding of anti-CD4-FITC (αCD4), anti-CD3-FITC (αCD3), anti-CD8-FITC (αCDS), or HIV coat protein rgp120 was measured as previously described (Weaver et al., 1990). Briefly, cells were treated with a drug (10' RT) and then FITC labeled antibody or rgp120 followed by anti-rgp120-FITC. Binding was measured by quantitating cell bound fluorescence using flow cytometry. Some binding assays were run in phenol red free RPMI 1640/5% serum instead of the usual PBS to determine effectiveness under cell culture conditions.
Since anti-Leu3a (αCD4) and rgp120 bind to the same site on the CD4 molecule, interference in binding of αCD4 can be used to screen compounds for possible anti-HIV activity. EB or ATA are used as positive controls since they have been shown previously to block eCD4 and rpg120 binding (Weaver et al, "Polyionic compounds selectively alter availability of CD4 receptors for HIV coat protein rgp120," AIDS Res. Human Retrovir. 6 1125-1130 (1990)). […] Six of the dyes tested show significant ability to block αCD4 binding. Three compounds, Acid Blue 116, Acid Red 115, and Direct Red 79 were selected for more complete analysis.

[1] = biological target: T2, binding of HIV rgp120 to CD4 on peripheral blood lymphocytes (Homo sapiens, UniProt P01730); assay: Inhibition of HIV rgp120 binding to PBL, detected with anti-rgp120-FITC, flow cytometry; details: 10 min, rgp120 binding detected by αrgp120-FITC in PBS, % logarithmic mean channel number
T2 construct: Human peripheral blood lymphocytes (PBL) were prepared by density gradient centrifugation; endogenous in cells; host or cells: human peripheral blood lymphocytes (PBL)
Protocol: as §1
The results shown in Table 2 confirm that the three dyes selected on the basis of their interference with αCD4 binding can also block binding of rgp120. Their relative efficacy appears to be similar in both assays.

αCD3 binding to PBL = biological target: T3, αCD3 binding to PBL (Homo sapiens, UniProt P07766); assay: Specificity: binding of αCD3-FITC to PBL
T3 construct: Human peripheral blood lymphocytes (PBL) were prepared by density gradient centrifugation; endogenous in cells; host or cells: human peripheral blood lymphocytes (PBL)
T3 sequence (P07766 23-207): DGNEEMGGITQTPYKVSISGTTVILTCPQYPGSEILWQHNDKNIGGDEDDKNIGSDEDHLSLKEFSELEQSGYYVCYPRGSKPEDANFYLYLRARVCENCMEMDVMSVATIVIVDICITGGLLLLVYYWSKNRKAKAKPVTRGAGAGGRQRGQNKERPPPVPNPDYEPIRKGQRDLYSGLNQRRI
T3 sequence (P04234 22-171 partner): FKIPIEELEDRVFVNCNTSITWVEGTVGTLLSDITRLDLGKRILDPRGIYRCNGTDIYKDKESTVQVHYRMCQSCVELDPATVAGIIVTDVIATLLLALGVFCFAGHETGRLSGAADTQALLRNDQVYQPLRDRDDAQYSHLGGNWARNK
T3 sequence (P09693 23-182 partner): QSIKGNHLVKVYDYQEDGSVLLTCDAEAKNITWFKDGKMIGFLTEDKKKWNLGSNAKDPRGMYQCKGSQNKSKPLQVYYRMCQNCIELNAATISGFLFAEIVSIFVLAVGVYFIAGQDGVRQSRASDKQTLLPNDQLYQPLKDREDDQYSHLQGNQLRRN
T3 sequence (P20963 22-164 partner): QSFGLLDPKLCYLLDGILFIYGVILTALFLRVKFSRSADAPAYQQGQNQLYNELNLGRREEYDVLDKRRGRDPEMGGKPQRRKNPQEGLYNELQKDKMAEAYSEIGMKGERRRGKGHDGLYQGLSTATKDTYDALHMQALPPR
Protocol: as §1
(§2) We have analyzed the specificity of these compounds by testing their ability to interfere with the binding of two other monoclonal antibodies, αCD3 and αCD8. […] The increase in binding of αCD3 on Direct Red 79 treated cells may reflect nonspecific binding.

αCD8 binding to PBL = assay: Specificity: binding of αCD8-FITC to PBL; set-up: species or system human; details: for % Control Binding αCD8: αCD8-FITC binding in PBS, 10 min
Protocol: as §1, §2

[2] = Viability of PBL after 72 hr culture (propidium iodide exclusion); format: cell-based, human; details: human, PBL, 72 hr culture, untreated 90, read-out: % Viable Cells
Protocol: (§3) The effect of compounds on the viability of PBL was determined after culturing PBL for 72 hr at 37° C. Some cells were stimulated with 1 μl/ml of anti-T-cell receptor antibody for this time period. Cells were then washed 1× in PBS and resuspended in PBS with 3 μg/ml propidium iodide. After 10 min incubation cells were analyzed by flow cytometry. Live cells were defined as those excluding propidium iodide.

PBL = assay: as above; format: cell-based, human; details: 72 hr of continuous culture
Protocol: as §3

[3] = Viability of PBL after 72 hr culture with anti-TCR stimulation (propidium iodide exclusion); format: cell-based, human; details: human, anti-tcr stimulated pbl; PBL, 72 hr culture with anti-TCR stimulation, 100 μM; untreated 78; read-out: % Viable Cells
Protocol: as §3

anti-TCR stimulated PBL = assay: as above; format: cell-based, human; details: Table 5
Protocol: as §3

[4] = tested on: HIV isolate LAV-1BR in PHA stimulated human PBL; assay: microbe, parasite or virus in culture; format: cell-based; details: for CPM RT: [3H]-TTP incorporated by reverse transcriptase, DMSO control 6338
Protocol: (§4) The effect of various drugs on growth of HIV isolate LAV-1BR in PHA stimulated human PBL was measured using two assays. Reverse transcriptase activity was measured in disrupted virions from the cell free supernatant as previously described (Anand et al, "Interaction between rifabutin and human immunodeficiency virus type-1: inhibition of replication, cytopathic effect and reverse transcriptase in vitro," Antimicrob. Agents Chemother. 32 684-688 (1988)).

[5] = tested on: HIV isolate LAV-1BR in PHA stimulated human PBL; assay: Production of intracellular HIV p24 measured by ELISA; format: cell-based; details: for pg/ml HIV p24: intracellular p24, ELISA, DMSO control 1222
Protocol: as §4

[6] = Solubility in aqueous solutions; format: physicochemical; details: concentrations needed for efficacy in the presence of serum
[7] = Binding to serum proteins; format: in vitro ADME; details: not shown
[8] = 10 min, αCD4-FITC binding to PBL in PBS, % logarithmic mean channel number, compound 10 μM, read-out: % Control Binding
[9] = 10 min, αCD4-FITC binding to PBL in PBS, % logarithmic mean channel number, read-out: % Control Binding

Work on Nc1ccc2cc(S(=O)(=O)O)cc(O)c2c1N=Nc1ccc(NC(=O)Nc2ccc(N=Nc3c(N)ccc4cc(S(=O)(=O)O)cc(O)c34)c(S(=O)(=O)O)c2)cc1S(=O)(=O)O [Direct Red 75, C.I. Direct Red 75] yielded a remaining activity at 10 µM (CD4 on PBL; [8]) of 70%.
For COc1cc(N=Nc2cc(S(=O)(=O)O)cc3cc(S(=O)(=O)O)cc(O)c23)c(C)cc1NC(=O)Nc1cc(C)c(N=Nc2cc(S(=O)(=O)O)cc3cc(S(=O)(=O)O)cc(O)c23)cc1OC [Direct Red 79, C.I. Direct Red 79], the remaining activity at 20 µM (CD4 on PBL; 10 min, Table 3, αCD4-FITC binding in PBS, compound 20 μM, read-out: % Control Binding αCD4) was 22%, the remaining activity at 10 µM (CD4 on PBL; [8]) was 13% and the remaining rgp120 binding (% of control) at 10 µM ([1]; compound 10 μM) was 30%. The αCD3 binding, % of control at 20 µM (αCD3 binding to PBL; 10 min, αCD3-FITC binding in PBS, compound 20 μM) was 124%, the “effect on binding of αCD3 (in words)” value (αCD3 binding to PBL; Table 3) was “does not affect binding” and the “effect on binding of αCD8 (in words)” value (αCD8 binding to PBL; Table 3) was “does not affect binding”. For the same compound, the “% Control Binding αCD8” value (αCD8 binding to PBL; compound 20 μM) was 106%, the viability at 72 h, 400 µM ([2]; 400 μM) was 89% and the “effect on the viability of PBL (in words)” value (PBL) was “no effect”. The viability at 72 h, 100 µM [3] was 54%, the “effect on the proliferation of αTCR stimulated PBL (in words)” value (anti-TCR stimulated PBL) was “limited effect” and the inhibition at 100 µM ([4]; Human immunodeficiency virus 1, 144 h, HIV reverse transcriptase activity, six day culture, 100 μM) was 97%. For the same compound, the “CPM RT” value ([4]; six day culture, 100 μM) was 145 CPM, the “production of reverse transcriptase activity (in words)” value ([4]; after six days of culture) was “strongly inhibit” and the “p24 production (in words)” value ([5]; intracellular HIV p24 protein) was “strongly decrease”. For the same compound, the “pg/ml HIV p24” value ([5]; 5 μg/ml) was 333 pg/mL.
Compound Cc1cc(-c2cc(C)c(N=Nc3c(O)ccc4ccccc34)cc2S(=O)(=O)O)c(S(=O)(=O)O)cc1N=Nc1c(O)ccc2ccccc12 [Acid Red 89, C.I. Acid Red 89] has a remaining activity at 7 µM (CD4 on PBL; [9]) of 6%.
In the case of O=S(=O)(O)c1cccc(N=Nc2c(O)ccc3cc(S(=O)(=O)O)cc(S(=O)(=O)O)c23)c1 [FD1], the remaining activity at 5 µM (CD4 on PBL; 10 min, αCD4-FITC binding to PBL in PBS, % logarithmic mean channel number, compound 5 μM, read-out: % Control Binding) is reported as 102%.
Work on O=S(=O)(O)c1ccc2c(N=Nc3ccccc3)ccc(N=Nc3ccc(Nc4ccccc4)c4c(S(=O)(=O)O)cccc34)c2c1 [Acid Blue 116, C.I. Acid Blue 116] yielded a remaining activity at 4 µM (CD4 on PBL; 10 min, Table 3, αCD4-FITC binding in PBS, compound 4 μM, read-out: % Control Binding αCD4) of 1%, a remaining activity at 7 µM (CD4 on PBL; [9]) of 0% and a remaining rgp120 binding (% of control) at 7 µM ([1]; compound 7 μM) of 9%. For the same compound, the αCD3 binding, % of control at 4 µM (αCD3 binding to PBL; 10 min, αCD3-FITC binding in PBS, compound 4 μM) was 44%, the “reduction of binding of αCD3 (fraction)” value (αCD3 binding to PBL; Table 3) was “about 1/2” and the “reduction of binding of αCD8 (fraction)” value (αCD8 binding to PBL; Table 3) was “about 1/2”. The “% Control Binding αCD8” value (αCD8 binding to PBL; compound 4 μM) was 54% and the “solubility in aqueous solutions (in words)” value [6] was “near their limits of solubility”.
For Cc1cc(NC(=O)Nc2ccc(N=Nc3cc(S(=O)(=O)O)c4cccc(S(=O)(=O)O)c4c3)c(C)c2)ccc1N=Nc1cc(S(=O)(=O)O)c2cccc(S(=O)(=O)O)c2c1 [Direct Yellow 50, reference compound], the remaining activity at 50 µM (CD4 on PBL; 10 min, αCD4-FITC binding to PBL in PBS, % logarithmic mean channel number, compound 50 μM, read-out: % Control Binding) was 42%.
With O=C(O)C1=CC(=C(c2ccc(O)c(C(=O)O)c2)c2ccc(O)c(C(=O)O)c2)C=CC1=O [ATA, aurin tricarboxlyic acid, reference compound] the viability at 72 h, 10 µM ([2]; 10 μM) was 86%, the inhibition at 1 µM ([4]; Human immunodeficiency virus 1, 144 h, HIV reverse transcriptase activity, six day culture, 1 μM) was 97% and the “CPM RT” value ([4]; six day culture, 1 μM) was 109 CPM. For the same compound, the “pg/ml HIV p24” value ([5]; 0.25 μg/ml) was 111 pg/mL, the “pg/ml HIV p24” value ([5]; 2.5 μg/ml) was 0 pg/mL and the “binding to serum proteins (in words)” value [7] was “does not bind to serum proteins”.
With O=C(Nc1ccc(N=Nc2ccc(O)c(C(=O)O)c2)cc1)Nc1ccc(N=Nc2ccc(O)c(C(=O)O)c2)cc1 [Direct Yellow 26, C.I. Direct Yellow 26] the remaining activity at 12 µM (CD4 on PBL; 10 min, αCD4-FITC binding to PBL in PBS, % logarithmic mean channel number, compound 12 μM, read-out: % Control Binding) was 84%.
For COc1cc(-c2ccc(N=Nc3ccc4c(S(=O)(=O)[O-])cc(S(=O)(=O)[O-])c(N)c4c3O)c(OC)c2)ccc1N=Nc1ccc2c(S(=O)(=O)[O-])cc(S(=O)(=O)[O-])c(N)c2c1O.[Na+].[Na+].[Na+].[Na+] [Direct Blue 1, C.I. Direct Blue 1], the “% Control Binding” value (CD4 on PBL; αCD4-FITC binding to PBL in PBS, % logarithmic mean channel number, compound 10 μM) was 1%.
In the case of Cc1ccccc1N=Nc1ccc(N=Nc2c(O)c(S(=O)(=O)[O-])cc3cc(S(=O)(=O)[O-])ccc23)c(C)c1.[Na+].[Na+] [Acid Red 115, C.I. Acid Red 115], the “% Control Binding αCD4” value (CD4 on PBL; Table 3, αCD4-FITC binding in PBS, compound 6 μM, 10 min) is reported as 2%, the “% Control Binding” value (CD4 on PBL; αCD4-FITC binding to PBL in PBS, % logarithmic mean channel number, compound 6 μM, 10 min) is reported as 2% and the “% Control Binding” value ([1]; compound 6 μM) is reported as 10%. The “effect on binding of αCD3 (in words)” value (αCD3 binding to PBL; Table 3) was “interferes with αCD3”, the “% Control Binding αCD3” value (αCD3 binding to PBL; αCD3-FITC binding in PBS, compound 6 μM, 10 min) was 41% and the “% Control Binding αCD8” value (αCD8 binding to PBL; compound 6 μM) was 90%. The “solubility in aqueous solutions (in words)” value [6] was “near their limits of solubility”.
